Data reported in PMC8879702, “Discovery of Small Molecule Activators of Chemokine Receptor CXCR4 That Improve Diabetic Wound Healing” (International Journal of Molecular Sciences, 2022).

Test system: miR-15b
Assay: miR-15b expression in human diabetic fibroblasts (real time qPCR)
Format: cell-based
Experimental: An additional secondary screen was performed to further validate the activity of UCUF-728 as a selective CXCR4 receptor modulator. Human diabetic and non-diabetic fibroblasts were cultured with increasing concentrations of the compound. The cells were incubated for 24 h and then total cellular RNA was isolated to examine the ability of the compound to correct the abnormal expression of miR-15b, and miR-29a. We have shown that human diabetic skin has an increased miR-15b expression at the baseline compared to non-diabetic skin [7].
CEM-CCRF cells (ATCC CCL-119) were cultured in growth media consisting of RPMI 1640 (Corning; Corning NY, USA) supplemented with 10% Fetal Bovine Serum (Corning; Corning, NY, USA), and 100 IU penicillin, […] streptomycin sulfate (Corning; Corning, NY, USA). Cells were maintained in suspension and subcultured twice weekly to maintain cell densities between 0.8 × 10^6 cells/mL and 2.5 × 10^6 cells/mL to maintain exponential growth phase. […]
Total RNA was extracted with TRIzol reagent (Invitrogen, Carlsbad, CA, USA) according to the manufacturer’s established protocol. […] Quantitative PCR was performed on a BIO-RAD CFX96 according to the manufacturer’s instructions. Quantitative values of genes of interest are normalized based on U6. […]

COc1ccc(OC)c(NS(=O)(=O)c2ccc(-c3cnc(C4CC4)o3)cc2)c1 [Compound 19]
lowest concentration with potent suppression of miR-15b expression: 0.1 µM
miR-15b expression (24 h): decreased the expression of miR-15b
